The source of these data is ChEMBL document CHEMBL3797114, “Design, synthesis and biological evaluation of 6-substituted pyrrolo[2,3-d]pyrimidines as dual inhibitors of TS and AICARFTase and as potential antitumor agents” (Eur J Med Chem, 2016).

For assay [1], the system named is KB. The experiment in a line: Antiproliferative activity against human KB cells after 72 hrs by MTT assay in presence of leucovorin. In kind it is functional, cell-based. In general terms: Tetrazolium dyes change colour on reduction, which living cells bring about.
The nature of assay [2]: Antiproliferative activity against human SW620 cells after 72 hrs by MTT assay in presence of leucovorin. The settings on record: SW-620, 72 h. It counts as functional, cell-based.
Assay [3] has as its system A549. The experiment in a line: Antiproliferative activity against human A549 cells after 72 hrs by MTT assay in presence of leucovorin. It counts as functional, cell-based. The settings on record: A549, 72 h.
The test system of assay [4] is KB. The experiment in a line: Inhibition of colony formation in human KB cells at 1 uM measured after 10 to 14 days by methylene blue staining based assay presence of leucovorin. It counts as functional.
Assay [5] in a line: Cell cycle arrest in human SW620 cells assessed as accumulation at S phase at 10 uM after 96 hrs by propidium iodide staining based flow cytometry in presence of leucovorin (reference value: 27.3 %). It counts as functional. Particulars: SW-620. For orientation: A flow cytometer gives signals particle by particle.
Assay [6] is described as follows: Cell cycle arrest in human SW620 cells assessed as accumulation at G2 phase at 10 uM after 96 hrs by propidium iodide staining based flow cytometry in presence of leucovorin (reference value: 10.3 %). In kind it is functional. Particulars: SW-620.
Assay [7] is described as follows: Cell cycle arrest in human SW620 cells assessed as accumulation at G1 phase at 10 uM after 96 hrs by propidium iodide staining based flow cytometry in presence of leucovorin (reference value: 62.4 %). In kind it is functional. Particulars: SW-620.
Assay [8] deals with SW-620. The experiment in a line: Induction of apoptosis in human SW620 cells assessed as viable cells at 10 uM after 48 hrs by annexin V-FITC/PI staining based flow cytometry in presence of leucovorin (reference value: 84.0 %). It counts as functional. The settings on record: SW-620, 48 h, read-out: Activity.
For assay [9], the system named is SW-620. The experiment in a line: Induction of apoptosis in human SW620 cells assessed as early apoptotic cells at 10 uM after 48 hrs by annexin V-FITC/PI staining based flow cytometry in presence of leucovorin (reference value: 0.6 %). It counts as functional.
Assay [10] has as its system SW-620. The experiment in a line: Induction of apoptosis in human SW620 cells assessed as late apoptotic cells at 10 uM after 48 hrs by annexin V-FITC/PI staining based flow cytometry in presence of leucovorin (reference value: 6.4 %). In kind it is functional.
In assay [11] the test system is SW-620. The experiment in a line: Induction of apoptosis in human SW620 cells assessed as necrotic cells at 10 uM after 48 hrs by annexin V-FITC/PI staining based flow cytometry in presence of leucovorin (reference value: 9 %). In kind it is functional.
Assay [12] has as its target Bifunctional purine biosynthesis protein ATIC (Homo sapiens) (UniProt P31939). The experiment in a line: Inhibition of AICARFTase in human SW620 cells assessed as growth inhibition at 0.001 to 10 uM coincubated with AICA. In kind it is cell-based. Particulars: SW-620.
In assay [13] the target is Thymidylate synthase/AICAR transformylase (Homo sapiens) (UniProt P04818+P31939). The experiment in a line: Inhibition of thymidylate synthase/AICARFTase in human SW620 cells assessed as growth inhibition at 0.001 to 10 uM coincubated with AICA and […]. In kind it is cell-based. Particulars: SW-620.
Assay [14] deals with Thymidylate synthase (Homo sapiens) (UniProt P04818). The experiment in a line: Inhibition of thymidylate synthase in human SW620 cells assessed as growth inhibition at 0.001 to 10 uM coincubated with excessive thymidine. In kind it is cell-based. The settings on record: SW-620.
Assay [15] has as its target GAR transformylase/AICAR transformylase (Homo sapiens) (UniProt P31939+P22102). The experiment in a line: Inhibition of GARFTase/AICARFTase in human SW620 cells assessed as growth inhibition at 0.001 to 10 uM coincubated with adenosine. In kind it is cell-based. The settings on record: SW-620.
Assay [16] has as its target Thymidylate synthase/GAR transformylase/AICAR transformylase (Homo sapiens) (UniProt P04818+P31939+P22102). The experiment in a line: Inhibition of thymidylate synthase/GARFTase/AICARFTase in human SW620 cells assessed as growth inhibition at 0.001 to 10 uM coincubated with thymidine and adenosine. In kind it is cell-based. The settings on record: SW-620.

By IC50 is commonly meant the point on the concentration scale where inhibition reaches its midpoint. By inhibition is commonly meant the relative decrease from the control value, in per cent.

SMILES strings stand for the structures. The source made the active and inactive calls. The rule behind the calls is not given here.

Sequence of GAR transformylase/AICAR transformylase (Homo sapiens) (P22102 whole entry, looked up): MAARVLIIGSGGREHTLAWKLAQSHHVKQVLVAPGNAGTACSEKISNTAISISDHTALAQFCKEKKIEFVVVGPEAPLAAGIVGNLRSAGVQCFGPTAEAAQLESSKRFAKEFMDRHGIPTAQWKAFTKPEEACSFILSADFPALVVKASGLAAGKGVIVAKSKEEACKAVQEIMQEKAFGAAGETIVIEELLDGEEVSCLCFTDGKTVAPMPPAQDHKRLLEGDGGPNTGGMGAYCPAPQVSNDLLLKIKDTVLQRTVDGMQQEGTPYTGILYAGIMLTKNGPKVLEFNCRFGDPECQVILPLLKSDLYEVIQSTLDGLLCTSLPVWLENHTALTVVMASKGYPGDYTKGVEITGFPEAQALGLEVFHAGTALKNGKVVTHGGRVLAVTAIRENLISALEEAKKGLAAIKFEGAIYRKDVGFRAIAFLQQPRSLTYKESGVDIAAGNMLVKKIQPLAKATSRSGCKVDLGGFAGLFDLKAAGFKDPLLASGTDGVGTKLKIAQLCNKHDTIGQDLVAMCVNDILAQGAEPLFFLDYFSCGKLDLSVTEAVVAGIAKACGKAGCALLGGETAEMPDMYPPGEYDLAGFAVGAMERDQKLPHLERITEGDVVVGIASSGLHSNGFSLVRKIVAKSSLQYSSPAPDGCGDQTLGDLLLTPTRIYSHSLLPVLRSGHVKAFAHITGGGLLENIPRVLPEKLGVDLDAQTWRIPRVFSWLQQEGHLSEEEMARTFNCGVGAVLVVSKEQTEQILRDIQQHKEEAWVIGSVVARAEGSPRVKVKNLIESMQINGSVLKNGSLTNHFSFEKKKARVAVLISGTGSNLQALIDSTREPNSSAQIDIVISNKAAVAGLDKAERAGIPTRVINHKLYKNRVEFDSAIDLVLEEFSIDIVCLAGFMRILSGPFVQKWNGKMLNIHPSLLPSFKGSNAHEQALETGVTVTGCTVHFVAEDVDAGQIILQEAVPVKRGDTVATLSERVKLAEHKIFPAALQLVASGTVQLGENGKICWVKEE
Sequence of GAR transformylase/AICAR transformylase (Homo sapiens) (P31939 whole entry, looked up): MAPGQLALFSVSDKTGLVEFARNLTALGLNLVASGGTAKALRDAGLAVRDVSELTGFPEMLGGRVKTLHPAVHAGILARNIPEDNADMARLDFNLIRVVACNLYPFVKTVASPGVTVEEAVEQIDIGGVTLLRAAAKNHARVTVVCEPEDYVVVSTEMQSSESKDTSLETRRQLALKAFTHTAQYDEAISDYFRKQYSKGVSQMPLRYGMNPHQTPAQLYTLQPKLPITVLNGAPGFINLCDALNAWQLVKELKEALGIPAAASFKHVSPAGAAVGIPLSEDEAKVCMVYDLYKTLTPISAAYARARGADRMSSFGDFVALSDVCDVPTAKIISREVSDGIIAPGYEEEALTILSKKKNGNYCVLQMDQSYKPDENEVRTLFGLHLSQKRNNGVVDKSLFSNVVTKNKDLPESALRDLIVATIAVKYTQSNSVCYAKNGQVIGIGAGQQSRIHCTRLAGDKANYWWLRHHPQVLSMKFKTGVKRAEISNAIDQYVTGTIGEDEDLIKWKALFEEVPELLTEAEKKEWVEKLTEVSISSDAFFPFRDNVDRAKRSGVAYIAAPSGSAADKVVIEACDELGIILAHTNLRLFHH
Sequence of Thymidylate synthase/AICAR transformylase (Homo sapiens) (P04818 whole entry, looked up): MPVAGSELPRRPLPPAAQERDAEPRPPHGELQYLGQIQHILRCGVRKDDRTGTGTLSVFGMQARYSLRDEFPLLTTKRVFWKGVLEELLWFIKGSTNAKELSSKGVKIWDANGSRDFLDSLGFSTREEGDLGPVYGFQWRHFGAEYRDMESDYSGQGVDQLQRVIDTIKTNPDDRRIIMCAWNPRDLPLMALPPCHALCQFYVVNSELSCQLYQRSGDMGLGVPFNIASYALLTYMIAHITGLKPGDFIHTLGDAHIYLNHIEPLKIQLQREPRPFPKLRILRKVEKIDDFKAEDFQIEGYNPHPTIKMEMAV
Sequence of Thymidylate synthase/AICAR transformylase (Homo sapiens) (P31939 whole entry, looked up): as the sequence (P31939 whole entry, looked up) above
Sequence of Thymidylate synthase/GAR transformylase/AICAR transformylase (Homo sapiens) (P04818 whole entry, looked up): as the sequence (P04818 whole entry, looked up) above
Sequence of Thymidylate synthase/GAR transformylase/AICAR transformylase (Homo sapiens) (P22102 whole entry, looked up): as the sequence (P22102 whole entry, looked up) above
Sequence of Thymidylate synthase/GAR transformylase/AICAR transformylase (Homo sapiens) (P31939 whole entry, looked up): as the sequence (P31939 whole entry, looked up) above
Sequence of Thymidylate synthase (Homo sapiens) (P04818 2-313 limits assumed): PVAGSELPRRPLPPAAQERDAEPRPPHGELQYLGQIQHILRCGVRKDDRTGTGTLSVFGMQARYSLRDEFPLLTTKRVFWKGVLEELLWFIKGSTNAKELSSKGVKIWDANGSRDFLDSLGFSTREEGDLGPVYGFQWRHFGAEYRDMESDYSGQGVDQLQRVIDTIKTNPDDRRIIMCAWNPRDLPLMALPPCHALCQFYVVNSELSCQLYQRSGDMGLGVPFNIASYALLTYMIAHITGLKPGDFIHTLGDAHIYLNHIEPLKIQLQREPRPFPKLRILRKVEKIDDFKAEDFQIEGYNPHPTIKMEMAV
Sequence of Bifunctional purine biosynthesis protein ATIC (Homo sapiens) (P31939 whole entry, looked up): as the sequence (P31939 whole entry, looked up) above

Consider `Nc1nc2[nH]c(CCSCCC(=O)NCc3ccccn3)cc2c(=O)[nH]1`, for which the results for the IC50 in assay [1], in assay [2] and in assay [3] were 8.93 µM, 11.9 µM and 77.3 µM, respectively.
For the compound `Nc1nc2[nH]c(CCSCCC(=O)NCc3cccnc3)cc2c(=O)[nH]1`, the IC50 turned out to be 0.648 µM in assay [1], 0.665 µM in assay [2] and 1.07 µM in assay [3]. Further, the inhibition at 1 µM in assay [4] worked out at 70%. Further, the Activity in assay [5] is 24.9%; in assay [6], 8.6%; in assay [7] it was 66.5%; in assay [9], 1.1%; in assay [10], 25.1%; in [11], 22%. The viability at 10 µM in [8] was found to be 51.8%.
As for `Nc1nc2[nH]c(CCSCC(=O)N[C@@H](CCC(=O)O)C(=O)O)cc2c(=O)[nH]1`, the IC50 in assay [1] amounted to 0.373 µM; in [2], 0.442 µM; in assay [3], 0.668 µM.
`CN(Cc1cnc2nc(N)nc(N)c2n1)c1ccc(C(=O)N[C@@H](CCC(=O)O)C(=O)O)cc1` [METHOTREXATE]: the figures for the 50% inhibitory concentration (IC50) in [2] and in [3] were 0.013 µM and 0.99 µM, respectively.
As for `Nc1nc2[nH]c(CCSCCC(=O)N[C@@H](CCC(=O)O)C(=O)O)cc2c(=O)[nH]1`, the IC50 in [1] worked out at 0.324 µM; in assay [2], 0.387 µM; in assay [3] it was 0.713 µM. Also, the inhibition at 1 µM in assay [4] was 80%. Moreover, the “growth inhibition (GI)” value in assay [12], in assay [13], in [14], in assay [15] and in assay [16] was “inactive” in each case. Besides, the Activity in [5] was determined as 39.2%; in [6] it was 4.5%; in assay [7], 56.3%; in [9] it was 1.5%; in assay [10] it was 34.8%; in [11] it was 41.6%. Moreover, the viability at 10 µM in [8] was 22.1%.
Take `Nc1nc2[nH]c(CCSCC(=O)NCc3cccnc3)cc2c(=O)[nH]1`: the values for the IC50 in assay [1], in [2] and in assay [3] were 37.5 µM, 25.3 µM and 56.6 µM, respectively.
Regarding `Nc1nc2[nH]c(CCSCCC(=O)NCc3ccncc3)cc2c(=O)[nH]1`, the figures for the half-maximal inhibitory concentration (IC50) in assay [1], in [2] and in [3] were 45.6 µM, 24.8 µM and 7.87 µM, respectively.
With `Nc1nc2[nH]cc(CCc3ccc(C(=O)N[C@@H](CCC(=O)O)C(=O)O)cc3)c2c(=O)[nH]1` [PEMETREXED], the IC50 was 0.08 µM in [2] and 1.26 µM in assay [3]. For the same compound, the values for the Activity in assay [5], in assay [6] and in [7] were 54.2%, 0% and 45.8%, respectively.
On to `Nc1nc2[nH]c(CCSCC(=O)NCc3ccncc3)cc2c(=O)[nH]1`, for which the figures for the IC50 in [1], in assay [2] and in [3] were 14.1 µM, 22.7 µM and 42.4 µM, respectively.
The matching figures for `Nc1nc2[nH]c(CCSCC(=O)NCc3ccccn3)cc2c(=O)[nH]1`: 28.4 µM, 36.1 µM and 14.1 µM.
